These compounds were tested against T1, carboxypeptidase U (Homo sapiens, UniProt Q96IY4) (assay: carboxypeptidase U inhibition assay (Hendriks et al., Clinical Chemistry 31, 1936-1939 (1985))). Conditions: assay of Hendriks, Scharpé and van Sande.
T1 sequence (Q96IY4 115-423): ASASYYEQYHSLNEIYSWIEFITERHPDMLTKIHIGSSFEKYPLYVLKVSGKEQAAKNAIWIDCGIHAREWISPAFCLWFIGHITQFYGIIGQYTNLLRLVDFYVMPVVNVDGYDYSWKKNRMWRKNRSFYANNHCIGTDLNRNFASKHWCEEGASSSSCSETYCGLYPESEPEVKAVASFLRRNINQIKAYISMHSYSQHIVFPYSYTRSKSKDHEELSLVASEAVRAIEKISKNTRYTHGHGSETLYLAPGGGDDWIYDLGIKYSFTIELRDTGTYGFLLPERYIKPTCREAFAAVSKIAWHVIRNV
Format: biochemical
From the text: The inhibiting effect of the compounds of the present invention was estimated using the assay described in: Dirk Hendriks, Simon Scharpé and Marc van Sande, Clinical Chemistry, 31, 1936-1939 (1985); and Wei Wang, Dirk F. Hendriks, Simon S. Scharpé, The Journal of Biological Chemistry, 269, 15937-15944 (1994).
The activities of certain Examples in the assay described in: Dirk Hendriks, Simon Scharpé and Marc van Sande, Clinical Chemistry, 31, 1936-1939 (1985) are presented in Table I below.
An IC50 of 800 nM was found for Nc1ccc(CC(C(=O)O)C(S)CCc2cccc(Cl)c2)cn1 (stereo not shown) [Example 6, 2-[(6-Aminopyridin-3-yl)methyl]-5-(3-chlorophenyl)-3-mercaptopentanoic acid] in this work. An IC50 of 800 nM was found for Nc1ccc(CC(C(=O)O)C(S)CCc2ccc3c(c2)OCO3)cn1 (stereo not shown) [Example 7, 2-[(6-Aminopyridin-3-yl)methyl]-5-(1,3-benzodioxol-5-yl)-3-mercaptopentanoic acid] in this work. An IC50 of 800 nM was found for N#CCc1ccc(CCC(S)C(Cc2ccc(N)nc2)C(=O)O)cc1 (stereo not shown) [Example 11, 2-[(6-Aminopyridin-3-yl)methyl]-5-[4-(cyanomethyl)phenyl]-3-mercaptopentanoic acid] in this work. An IC50 of 1000 nM was found for Nc1ccc(CC(C(=O)O)C(S)CCC2CCCS2)cn1 (stereo not shown) [Example 18, 2-[(6-Aminopyridin-3-yl)methyl]-3-mercapto-5-(tetrahydro-2-thienyl)pentanoic acid] in this work. An IC50 of 6300 nM was found for Nc1ncc(CC(C(=O)O)C(S)CCc2ccccc2)s1 (stereo not shown) [Example 24, 2-[(2-Amino-1,3-thiazol-5-yl)methyl]-3-mercapto-5-phenylpentanoic acid] in this work. An IC50 of 4000 nM was found for O=C(O)C(CC1C2CCC1CNC2)C(S)CCc1ccccc1 (stereo not shown) [Example 25, 2-(3-Azabicyclo[3.2.1]oct-8-ylmethyl)-3-mercapto-5-phenylpentanoic acid] in this work. An IC50 of 800 nM was found for Nc1ccc(CC(C(=O)O)C(S)CCc2cccc(C(=O)N3CCc4ccccc4C3)c2)cn1 (stereo not shown) [Example 28, 2-[(6-Aminopyridin-3-yl)methyl]-5-[3-(3,4-dihydroisoquinolin-2(1H)-ylcarbonyl)phenyl]-3-mercaptopentanoic acid] in this work. An IC50 of 600 nM was found for Nc1ccc(CC(C(=O)O)C(S)CCc2cccc(C(=O)OCCc3c(Cl)cccc3Cl)c2)cn1 (stereo not shown) [Example 31, 2-[(6-Aminopyridin-3-yl)methyl]-5-(3-{[2-(2,6-dichlorophenyl)ethoxy]carbonyl}phenyl)-3-mercaptopentanoic acid] in this work. An IC50 of 600 nM was found for Nc1ccc(CC(C(=O)O)C(S)CCc2cccc(C(=O)NCCF)c2)cn1 (stereo not shown) [Example 33, 2-[(6-Aminopyridin-3-yl)methyl]-5-(3-{[(2-fluoroethyl)amino]carbonyl}phenyl)-3-mercaptopentanoic acid] in this work. An IC50 of 600 nM was found for CN(Cc1ccccc1)C(=O)c1cccc(CCC(S)C(Cc2ccc(N)nc2)C(=O)O)c1 (stereo not shown) [Example 41] in this work. An IC50 of 600 nM was found for Nc1ccc(CC(C(=O)O)C(S)CCc2cccc(C(=O)N3CCCC3)c2)cn1 (stereo not shown) [Example 42, 2-[(6-Aminopyridin-3-yl)methyl]-3-mercapto-5-[3-(pyrrolidin-1-ylcarbonyl)phenyl]pentanoic acid] in this work. An IC50 of 2000 nM was found for CCOC(=O)C1CCN(C(=O)c2cccc(CCC(S)C(Cc3ccc(N)nc3)C(=O)O)c2)CC1 (stereo not shown) [Example 43, 2-[(6-Aminopyridin-3-yl)methyl]-5-(3-{[4-(ethoxycarbonyl)piperidin-1-yl]carbonyl}phenyl)-3-mercaptopentanoic acid] in this work. An IC50 of 1000 nM was found for CN(CC#N)S(=O)(=O)c1cccc(CCC(S)C(Cc2ccc(N)nc2)C(=O)O)c1 (stereo not shown) [Example 47, 2-[(6-Aminopyridin-3-yl)methyl]-5-(3-{[(cyanomethyl)(methyl)amino]-sulfonyl}phenyl)-3-mercaptopentanoic acid] in this work.
